Patent US9708336B2, “Metallo-beta-lactamase inhibitors” (priority 2014, dated 2017)
Like-named read-outs stand apart in the source and are kept apart here.

How the values were obtained:
NDM-1 = NDM-1 (Klebsiella pneumoniae, UniProt C7C422); assay: biochemical; assay type: biochemical; details: read-out: NDM-1 IC50
IMP-1 = IMP-1 (Serratia marcescens, UniProt P52699); assay: biochemical; assay type: biochemical; details: read-out: IMP-1 IC50
VIM-1 = VIM-1 (Pseudomonas aeruginosa (strain ATCC 15692 / DSM 22644 / CIP 104116 / JCM 14847 / LMG 12228 / 1C / PRS 101 / PAO1), UniProt A0A0F7KYQ8); assay: Enzyme activity: determination of IC50, fluorescence assay with CCF2-FA substrate (VIM-1); assay type: biochemical
[1] = tested on: Escherichia coli expressing NDM-1 (CLB30016); assay: Antibiotic potentiation activity: synergistic concentration (MITC95) with imipenem, OD600 growth; assay type: cell-based
Summary of the method: (§1)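 Test compound was combined with 4 μg/ml imipenem (or optionally 1 μg/ml), or with no antibiotic, against saline-suspended colonies diluted 1:100 in 1.1×CAMHB. Strains were E. coli NDM-1, S. marcescens IMP-1 and K. pneumoniae VIM-1. Plates were incubated 22–24 h at 35 °C before absorbance (OD600) readout.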

[2] = tested on: Klebsiella pneumoniae expressing VIM-1 (IHMA599644); assay: as above; assay type: cell-based
Summary of the method: as §1

[3] = tested on: Serratia marcescens expressing IMP-1 (CL5741); assay: as above; assay type: cell-based
Summary of the method: as §1

[4] = NDM-1 enzyme, CCF2-FA substrate
[5] = IMP-1 enzyme, CCF2-FA substrate
[6] = VIM-1 IC50, VIM-1 enzyme, CCF2-FA substrate
[7] = (CLB30016, NDM-1), 95% growth inhibition
[8] = Klebsiella pneumoniae IHMA599644 (VIM-1), 95% growth inhibition
[9] = Serratia marcescens CL5741 (IMP-1), 95% growth inhibition
[10] = NDM-1 enzyme, CCF2-FA fluorescence assay
[11] = IMP-1 enzyme, CCF2-FA fluorescence assay
[12] = VIM-1 enzyme, CCF2-FA fluorescence assay, read-out: VIM-1 IC50
[13] = Escherichia coli expressing NDM-1 (CLB30016), 95% growth inhibition
[14] = Klebsiella pneumoniae expressing VIM-1 (IHMA599644), 95% growth inhibition
[15] = Serratia marcescens expressing IMP-1 (CL5741), 95% growth inhibition
[16] = VIM-1 enzyme, CCF2-FA substrate, read-out: VIM-1 IC50
[17] = fluorescence assay with CCF2-FA substrate

Sequence of NDM-1 (C7C422 whole entry, looked up, species assumed): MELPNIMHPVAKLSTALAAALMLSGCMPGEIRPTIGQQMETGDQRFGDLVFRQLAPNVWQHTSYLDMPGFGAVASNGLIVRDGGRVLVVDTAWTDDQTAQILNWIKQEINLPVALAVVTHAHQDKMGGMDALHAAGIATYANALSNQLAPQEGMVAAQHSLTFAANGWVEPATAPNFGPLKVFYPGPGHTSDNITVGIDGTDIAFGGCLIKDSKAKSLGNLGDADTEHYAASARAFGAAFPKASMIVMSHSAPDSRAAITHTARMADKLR
Sequence of IMP-1 (P52699 whole entry, looked up): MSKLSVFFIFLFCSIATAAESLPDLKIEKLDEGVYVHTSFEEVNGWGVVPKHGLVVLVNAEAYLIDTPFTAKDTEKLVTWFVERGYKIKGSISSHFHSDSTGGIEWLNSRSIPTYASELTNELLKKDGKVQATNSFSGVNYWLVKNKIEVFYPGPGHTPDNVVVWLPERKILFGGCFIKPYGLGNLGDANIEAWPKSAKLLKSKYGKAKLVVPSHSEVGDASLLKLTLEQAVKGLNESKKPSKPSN

NC[C@H]1CC[C@H](Cc2ccc(-c3ccc(C4CNC4)cc3)c(-c3nnn[nH]3)c2S(N)(=O)=O)CC1 [Example 601, 4-(((1r,4r)-4-(aminomethyl)cyclohexyl)methyl)-4′-(azetidin-3-yl)-2-(1H-tetrazol-5-yl)-[1,1′-biphenyl]-3-sulfonamide]
IC50 (NDM-1; [4]): 0.00166 µM
IC50 (IMP-1; [5]): 0.0131 µM
IC50 (VIM-1; [6]): 0.000587 µM
Escherichia coli MITC95 [1, 7]: 1.563 µM
Klebsiella pneumoniae MITC95 [2, 8]: 1.563 µM
Serratia marcescens MITC95 [3, 9]: 3.125 µM

NS(=O)(=O)c1cccc(-c2ccc(CNCC(=O)NO)cc2)c1-c1nnn[nH]1 [Example 330, N-hydroxy-2-(((3′-sulfamoyl-2′-(1H-tetrazol-5-yl)-[1,1′-biphenyl]-4-yl)methyl)amino)acetamide]
IC50 (NDM-1; [10]): 0.0125 µM
IC50 (IMP-1; [11]): 0.118 µM
IC50 (VIM-1; [12]): 0.401 µM
Escherichia coli MITC95 [1, 13]: 1.563 µM
Klebsiella pneumoniae MITC95 [2, 14]: 50 µM
Serratia marcescens MITC95 [3, 15]: 4.688 µM

NS(=O)(=O)c1cccc(-c2cnc3ccccn23)c1-c1nnn[nH]1 [Example 404, 3-imidazo[1,2-a]pyridin-3-yl-2-(1H-tetrazol-5-yl)benzenesulfonamide]
IC50 (NDM-1; [10]): 0.000817 µM
IC50 (IMP-1; [11]): 0.0714 µM
IC50 (VIM-1; [12]): 0.00541 µM
Escherichia coli MITC95 [1, 13]: 0.0625 µM
Klebsiella pneumoniae MITC95 [2, 14]: 2.563 µM
Serratia marcescens MITC95 [3, 15]: 1.708 µM

Nc1nc2cc(-c3ccc(C(F)(F)F)c(S(N)(=O)=O)c3-c3nnn[nH]3)ccc2s1 [Example 550, 3-(2-amino-1,3-benzothiazol-5-yl)-2-(1H-tetrazol-5-yl)-6-(trifluoromethyl)benzenesulfonamide]
IC50 (NDM-1; [4]): 0.000753 µM
IC50 (IMP-1; [5]): 0.00252 µM
IC50 (VIM-1; [16]): 0.000315 µM
Escherichia coli MITC95 [1, 7]: 3.125 µM
Klebsiella pneumoniae MITC95 [2, 8]: 12.5 µM
Serratia marcescens MITC95 [3, 9]: 3.125 µM

NS(=O)(=O)c1c(C(F)(F)F)ccc([C@H]2CC[C@H](NC3CC4CNCCN4C3)CC2)c1-c1nnn[nH]1 (stereo partly drawn) [Example 686, 3-[4-(octahydropyrrolo[1,2-a]pyrazin-7-ylamino)cyclohexyl]-2-(1H-tetrazol-5-yl)-6-(trifluoromethyl)benzene sulfonamide]
IC50 (NDM-1; [4]): 0.00953 µM
IC50 (IMP-1; [5]): 0.0317 µM
IC50 (VIM-1; [6]): 0.0157 µM
Escherichia coli MITC95 [1, 7]: 1.563 µM
Klebsiella pneumoniae MITC95 [2, 8]: 12.5 µM
Serratia marcescens MITC95 [3, 9]: 6.25 µM

N=C(N)NC1CCC(CCc2ccc(-c3ccc(C4CCN(C(=N)N)CC4)cc3)c(-c3nn[nH]n3)c2S(N)(=O)=O)CC1 (stereo not drawn) [Example 472, 4-(4′-(2-(4-guanidinocyclohexyl)ethyl)-3′-sulfamoyl-2′-(2H-tetrazol-5-yl)-[1,1′-biphenyl]-4-yl)piperidine-1-carboximidamide]
IC50 (NDM-1; [10]): 0.000505 µM
IC50 (IMP-1; [11]): 0.000661 µM
IC50 (VIM-1; VIM-1 IC50, VIM-1 enzyme, CCF2-FA fluorescence assay): 0.0134 µM
Escherichia coli MITC95 [1, 13]: 1.172 µM
Klebsiella pneumoniae MITC95 [2, 14]: 75 µM
Serratia marcescens MITC95 [3, 15]: 0.7813 µM

NCCc1cccc(-c2ccc(C(F)(F)F)c(S(N)(=O)=O)c2-c2nnn[nH]2)c1 [Example 734, 3′-(2-aminoethyl)-2-(1H-tetraozl-5-yl)-4-(trifluoromethyl)biphenyl-3-sulfonamide]
IC50 (NDM-1; [4]): 0.0314 µM
IC50 (IMP-1; [5]): 0.0344 µM
IC50 (VIM-1; [16]): 0.00327 µM
Escherichia coli MITC95 [1, 7]: 12.5 µM
Klebsiella pneumoniae MITC95 [2, 8]: 12.5 µM
Serratia marcescens MITC95 [3, 9]: 25 µM

NCC1(N)CCC(c2ccc(C(F)(F)F)c(S(N)(=O)=O)c2-c2nnn[nH]2)CC1 (stereo not drawn) [Example 497, 3-(4-Amino-4-(aminomethyl)cyclohexyl)-2-(1H-tetrazol-5-yl)-6-(trifluoromethyl)benzenesulfonamide]
IC50 (NDM-1; [4]): 0.00306 µM
IC50 (IMP-1; [5]): 0.0258 µM
IC50 (VIM-1; [6]): 0.0595 µM
Escherichia coli MITC95 [1, 7]: 0.5859 µM
Klebsiella pneumoniae MITC95 [2, 8]: 6.25 µM
Serratia marcescens MITC95 [3, 9]: 0.3906 µM

NC(=O)C1CCCN(c2ccc(C(F)(F)F)c(S(N)(=O)=O)c2-c2nnn[nH]2)C1 (stereo not drawn) [Example 662, 1-[3-sulfamoyl-2-(1H-tetrazol-5-yl)-4-(trifluoromethyl)phenyl]piperidine-3-carboxamide]
IC50 (NDM-1; [4]): 0.0116 µM
IC50 (IMP-1; [5]): 0.0371 µM
IC50 (VIM-1; [16]): 0.00458 µM
Escherichia coli MITC95 [1, 7]: 6.25 µM
Klebsiella pneumoniae MITC95 [2, 8]: 12.5 µM
Serratia marcescens MITC95 [3, 9]: 1.953 µM

NCC[C@H]1CC[C@H](c2ccc(C(F)(F)F)c(S(N)(=O)=O)c2-c2nnn[nH]2)CC1 [Example 499, 3-(trans 4-(2-aminoethyl)cyclohexyl)-2-(1H-tetrazol-5-yl)-6-(trifluoromethyl)benzenesulfonamide]
IC50 (NDM-1; [4]): 0.00193 µM
IC50 (IMP-1; [5]): 0.00704 µM
IC50 (VIM-1; [6]): 0.000328 µM
Escherichia coli MITC95 [1, 7]: 0.7813 µM
Klebsiella pneumoniae MITC95 [2, 8]: 1.172 µM
Serratia marcescens MITC95 [3, 9]: 0.1953 µM

NS(=O)(=O)c1c(Br)ccc(-c2ccnc3ccccc23)c1-c1nn[nH]n1 [Example 266, 6-bromo-3-(quinolin-4-yl)-2-(2H-tetrazol-5-yl)benzenesulfonamide]
IC50 (NDM-1; [10]): 0.00208 µM
IC50 (IMP-1; [11]): 0.0126 µM
IC50 (VIM-1; [12]): 0.000689 µM
Escherichia coli MITC95 [1, 13]: 3.125 µM
Klebsiella pneumoniae MITC95 [2, 14]: 9.375 µM
Serratia marcescens MITC95 [3, 15]: 0.7813 µM

N#Cc1cc(-c2ccc(C(F)(F)F)c(S(N)(=O)=O)c2-c2nnn[nH]2)c2[nH]c(N)nc2c1 [Example 569, 3-(2-amino-5-cyano-1H-benzo[d]imidazol-7-yl)-2-(1H-tetrazol-5-yl)-6-(trifluoromethyl)benzenesulfonamide]
IC50 (NDM-1; [4]): 0.000215 µM
IC50 (IMP-1; [5]): 0.00162 µM
IC50 (VIM-1; [16]): 0.000309 µM
Escherichia coli MITC95 [1, 7]: 6.25 µM
Klebsiella pneumoniae MITC95 [2, 8]: 6.25 µM
Serratia marcescens MITC95 [3, 9]: 3.125 µM

Nc1cnc2cc(-c3cccc(S(N)(=O)=O)c3-c3nnn[nH]3)ccc2c1 [Example 416, 3-(3-amino-7-quinolyl)-2-(1H-tetrazol-5-yl)benzenesulfonamide]
IC50 (NDM-1; [10]): 0.00242 µM
IC50 (IMP-1; [11]): 0.0565 µM
IC50 (VIM-1; [12]): 0.0137 µM
Escherichia coli MITC95 [1, 13]: 2.344 µM
Klebsiella pneumoniae MITC95 [2, 14]: 25 µM
Serratia marcescens MITC95 [3, 15]: 6.25 µM

NS(=O)(=O)c1c(C(F)(F)F)ccc([C@H]2CC[C@H](NC3CCC4(CCNCC4)CC3)CC2)c1-c1nnn[nH]1 [Example 689, 3-[4-(3-azaspiro[5.5]undec-9-ylamino)cyclohexyl]-2-(1H-tetrazol-5-yl)-6-(trifluoromethyl)benzene sulfonamide]
IC50 (NDM-1; [4]): 0.0268 µM
IC50 (IMP-1; [5]): 0.0521 µM
IC50 (VIM-1; [16]): 0.00643 µM
Escherichia coli MITC95 [1, 7]: 6.25 µM
Klebsiella pneumoniae MITC95 [2, 8]: 12.5 µM
Serratia marcescens MITC95 [3, 9]: 6.25 µM

NS(=O)(=O)c1c(C(F)(F)F)ccc(-c2cccc(N3CCNCC3)c2)c1-c1nnn[nH]1 [Example 723, 3′-piperazin-1-yl-2-(1H-tetrazol-5-yl)-4-(trifluoromethyl)biphenyl-3-sulfonamide]
IC50 (NDM-1; [4]): 0.00778 µM
IC50 (IMP-1; [5]): 0.0172 µM
IC50 (VIM-1; [16]): 0.00126 µM
Escherichia coli MITC95 [1, 7]: 6.25 µM
Klebsiella pneumoniae MITC95 [2, 8]: 12.5 µM
Serratia marcescens MITC95 [3, 9]: 25 µM

NS(=O)(=O)c1cccc(-c2ccc(C3CCN(C[C@H]4CNCCO4)CC3)cc2)c1-c1nnn[nH]1 [Example 619]
IC50 (NDM-1; [4]): 0.00823 µM
IC50 (IMP-1; [5]): 0.0108 µM
IC50 (VIM-1; [6]): 0.388 µM
Escherichia coli MITC95 [1, 7]: 0.7813 µM
Klebsiella pneumoniae MITC95 [2, 8]: 150 µM
Serratia marcescens MITC95 [3, 9]: 0.9766 µM

CN(C)CCCNCc1ccc(-c2cccc(S(N)(=O)=O)c2-c2nnn[nH]2)cc1 [Example 348, 4′-({[3-(dimethylamino)propyl]amino}methyl)-2-(1H-tetrazol-5-yl)biphenyl-3-sulfonamide]
IC50 (NDM-1; [10]): 0.0254 µM
IC50 (IMP-1; [11]): 1.33 µM
IC50 (VIM-1; [12]): 0.851 µM
Escherichia coli MITC95 [1, 13]: 1.172 µM
Klebsiella pneumoniae MITC95 [2, 14]: 75 µM
Serratia marcescens MITC95 [3, 15]: 9.375 µM

NC1CN(C2CCN(c3ccc(C(F)(F)F)c(S(N)(=O)=O)c3-c3nnn[nH]3)CC2)C1 [Example 758, 3-[4-(3-aminoazetidin-1-yl)piperidin-1-yl]-2-(1H-tetrazol-5-yl)-6-(trifluoromethyl) benzenesulfonamide]
IC50 (NDM-1; [17]): 0.0296 µM
IC50 (IMP-1; [17]): 0.0458 µM
IC50 (VIM-1; VIM-1 IC50, fluorescence assay with CCF2-FA substrate): 0.00244 µM
Escherichia coli MITC95 ([1]; CLB30016 (NDM-1), 95% inhibition of bacterial growth): 6.25 µM
Klebsiella pneumoniae MITC95 ([2]; IHMA599644 (VIM-1), 95% inhibition of bacterial growth): 6.25 µM
Serratia marcescens MITC95 ([3]; CL5741 (IMP-1), 95% inhibition of bacterial growth): 6.25 µM

Cl.Cl.NC1(c2ccc(-c3cccc(S(N)(=O)=O)c3-c3nn[nH]n3)cc2)CCNCC1 [Example 283, 4′-(4-aminopiperidin-4-yl)-2-(2H-tetrazol-5-yl)-[1,1′-biphenyl]-3-sulfonamide dihydrochloride]
IC50 (NDM-1; [10]): 0.033 µM
IC50 (IMP-1; [11]): 0.5 µM
IC50 (VIM-1; [12]): 0.308 µM
Escherichia coli MITC95 [1, 13]: 0.5859 µM
Klebsiella pneumoniae MITC95 [2, 14]: 12.5 µM
Serratia marcescens MITC95 [3, 15]: 2.344 µM
